From ChEMBL document CHEMBL1139064, “Carbonic anhydrase activators: an activation study of the human mitochondrial isoforms VA and VB with amino acids and amines” (Bioorg Med Chem Lett, 2007)

How the values were obtained:
[1] = target: Carbonic anhydrase 5A, mitochondrial (Homo sapiens) (UniProt P35218); experiment: Activation of human recombinant carbonic anhydrase 5A by stopped-flow CO2 hydrase method
[2] = target: Carbonic anhydrase 5B, mitochondrial (Homo sapiens) (UniProt Q9Y2D0); experiment: Activation of human recombinant carbonic anhydrase 5B by stopped-flow CO2 hydrase method
Chain of Carbonic anhydrase 5B, mitochondrial (Homo sapiens) (Q9Y2D0 whole entry): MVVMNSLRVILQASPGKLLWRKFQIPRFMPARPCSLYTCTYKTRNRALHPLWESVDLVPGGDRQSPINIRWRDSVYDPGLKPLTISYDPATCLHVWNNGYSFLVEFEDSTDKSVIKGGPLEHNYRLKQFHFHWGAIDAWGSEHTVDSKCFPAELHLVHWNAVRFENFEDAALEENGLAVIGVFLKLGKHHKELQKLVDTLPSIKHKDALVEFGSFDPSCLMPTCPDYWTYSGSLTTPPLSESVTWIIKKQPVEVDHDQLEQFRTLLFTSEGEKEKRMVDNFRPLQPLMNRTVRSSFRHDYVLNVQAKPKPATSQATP

Chain of Carbonic anhydrase 5A, mitochondrial (Homo sapiens) (P35218 whole entry): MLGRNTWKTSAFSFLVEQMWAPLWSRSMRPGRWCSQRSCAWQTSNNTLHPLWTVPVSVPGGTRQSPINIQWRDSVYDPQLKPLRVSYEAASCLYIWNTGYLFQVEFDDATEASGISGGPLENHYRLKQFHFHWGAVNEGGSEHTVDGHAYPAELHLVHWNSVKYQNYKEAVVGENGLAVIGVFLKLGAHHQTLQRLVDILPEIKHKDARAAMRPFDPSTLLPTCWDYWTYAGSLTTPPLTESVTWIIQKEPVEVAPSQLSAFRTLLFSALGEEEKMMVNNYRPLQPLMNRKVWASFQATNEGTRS

In the case of `N[C@@H](Cc1ccc(O)cc1)C(=O)O`, the KA [1] is reported as 2.45 µM and the KA [2] is reported as 0.044 µM.

Molecule `N[C@H](Cc1c[nH]cn1)C(=O)O` has a KA [1] of 0.12 µM and a KA [2] of 4.38 µM.

`NCc1ccccn1` gave a KA [1] of 23.6 µM and a KA [2] of 0.24 µM.

`N[C@@H](Cc1c[nH]c2ccccc12)C(=O)O` gave a KA [1] of 1.13 µM and a KA [2] of 0.89 µM.

In the case of `NCCc1c[nH]c2ccc(O)cc12`, the KA [1] is reported as 6.33 µM and the KA [2] is reported as 0.11 µM.

`N[C@H](Cc1c[nH]c2ccccc12)C(=O)O` gave a KA [1] of 1.24 µM and a KA [2] of 1.35 µM.

Work on `NCCN1CCNCC1` yielded a KA [1] of 6.04 µM and a KA [2] of 0.91 µM.

In the case of `N[C@@H](Cc1ccc(O)c(O)c1)C(=O)O`, the KA [1] is reported as 0.036 µM and the KA [2] is reported as 0.063 µM.

In the case of `NCCc1ccccn1`, the KA [1] is reported as 7.62 µM and the KA [2] is reported as 0.094 µM.

Work on `N[C@H](Cc1ccc(O)c(O)c1)C(=O)O` yielded a KA [1] of 4.59 µM and a KA [2] of 3.71 µM.

Work on `Nc1ccc(C[C@H](N)C(=O)O)cc1` yielded a KA [1] of 2.76 µM and a KA [2] of 2.17 µM.

`N[C@@H](Cc1c[nH]cn1)C(=O)O` gave a KA [1] of 1.34 µM and a KA [2] of 0.97 µM.

For `NCCc1ccc(O)c(O)c1`, the KA [1] was 0.13 µM and the KA [2] was 7.85 µM.

In the case of `NCCN1CCOCC1`, the KA [1] is reported as 0.089 µM and the KA [2] is reported as 1.15 µM.

`NCCc1c[nH]cn1` was tested, and the KA [1] was 0.01 µM and the KA [2] was 3.52 µM.
